Source: patent EP2070527A1, “Inhibitors of fungal biofilm-formation” (QuoNova Europe GmbH, priority 2007, dated 2009)

Test system: Candida paratropicalis
Assay: MBEC assay (biofilm inhibition)
Assay type: cell-based
Settings: biofilm grown 24 hours at 37±2°C on pegs, logR = log reduction; for log reduction at 100 µM: test compound 100 µm (so in the source); for log reduction at 10 µM: test compound 10 µM
Protocol: TEST METHOD: MBEC™ Assay The compound to be tested was dissolved in DMSO to obtain a concentration that was 100 times that of the final concentration required (1mM for the 10µM assay and 10mM for the 100µM assay). 1.5 µL of the above solution was placed into each well of a 96 well plate (final volume in each well = 150 µL, final DMSO concentration of 1% (v/v)). To grow the organism and form a biofilm, a cryogenic stock of Candida paratropicalis (at - 70°C) was used. A first sub-culture was streaked out onto TSA (tryptic soy agar), upon which the plate was incubated at 37±2°C for 24 hours and stored wrapped in parafilm at 4 °C afterwards. From this first sub-culture, a second sub-culture was streaked out onto TSA. The plate was incubated at 37±2°C for 24 hours. The second sub-culture was used within 24 hours starting from the time it was first removed from incubation. Using the second sub-culture an inoculum in 3 mL sterile water that matches a 0.5 McFarland Standard (1.5 x 10^8 cells per mL) was created in a glass test tube using a sterile cotton swab. […] of this solution was diluted in 22mL TSB (tryptic soy broth) medium to a cell density of approximately 6.0 x 10^5 cells per mL. The diluted organism was inverted 3-5 times to achieve uniform mixing of the organism. One sample (100µl) of the diluted organism was used for an inoculum check by serially diluting and spot plating on TSA. To prepare a challenge plate, 20 µl of the diluted organism was added to each well of a 96 well plate except the sterility control wells. The test compounds were added to the wells to make up final concentrations of 10 µM and 100 µM (1.5 µL /well) in the designated location in the test plate. 128.5 µL of TSB was placed in each of the wells. 130 µL of media was added to the growth control wells. 128.5 µL of media+ 1.5 µL of DMSO were added to a second set of growth control wells. 150 µL of media was added to the sterility controls. Each sample was run in triplicate. The plate was covered by a lid with a peg per well and wrapped in parafilm and placed on a shaker in a humidified incubator (GeneVac) at 37±2°C for 24 hours set at 110 rpm. Rinse plate(s) of 0.9% saline (200 µL per well) were prepared in a sterile 96 well microtitre plate. Lid-associated pegs were rinsed in 0.9% saline for approximately 1-2 minutes. The peg lid was transferred to the recovery media (1.0% Tween 80 in CAMHB) then sonicated for 30 minutes to dislodge surviving biofilm. Following sonication, 100 µl from each well of the 96 well plate was placed into the first 12 wells of the first row of a 96 well microtiter plate. 180 µl of 0.9% sterile saline was placed in the remaining rows. A serial dilution (10^0-10^-7) was prepared by moving 20 µl down each of the 8 rows. 20µl from each well was removed and spot plated on a prepared TSA. In the remaining recovery plate, 100 µl of fresh growth media (1.0% Tween 80 in CAMHB) was placed in each well to replace the amount removed. The recovery plate was covered with a regular lid and incubated at 37±2°C for 24 hours and read visually to confirm antimicrobial activity of the test compounds. The following compounds have been tested regarding their efficiency (logR = log reduction) against Candida paratropicalis: […]

SMILES	log reduction at 100 µM	log reduction at 10 µM
CCCCCCCCCC(=O)CC(=O)N(C)c1ccc(F)cc1 [Example 1]	0.62	
CCCCCCC(=O)CC(=O)Nc1ccno1 [Example 2]	0.65	1.12
CCCCCCCCCC(=O)CC(=O)Nc1ccno1 [Example 3]	1.1	1.26
CCCCCCCCCC(=O)CC(=O)Nc1nc(C)co1 [Example 4]	1.71	
CCCCCCCCCC(=O)CC(=O)N1CCN(C)CC1 [Example 5]	2.83	
CCCCCCCCCC(=O)CC(=O)N1CCC(N(C)C)C1 (centres unmarked) [Example 6]	3.87	
